Tests used:
Assay type in all cases: biochemical
PI3Kalpha = biological target: T1, PI3Kalpha (Homo sapiens, UniProt P42336); experiment: PI3K KinaseGlo assay, PI3Kalpha; conditions: 1 μM ATP, 10 nM enzyme, 30 mins
T1 construct: His6 (C); made in house; host or cells: baculovirus / Tn5 insect cells

PI3Kdelta = biological target: T2, PI3Kdelta (Homo sapiens, UniProt O00329); experiment: PI3K KinaseGlo assay, PI3Kdelta; conditions: 1 μM ATP, 10 nM enzyme, 30 mins
T2 construct: for the full-length p110δ subunit were generated and fused by overlapping PCR; His tag (C); made in house; host or cells: baculovirus / Tn5 insect cells
T2 sequence (O00329 with tags, fused parts or gaps): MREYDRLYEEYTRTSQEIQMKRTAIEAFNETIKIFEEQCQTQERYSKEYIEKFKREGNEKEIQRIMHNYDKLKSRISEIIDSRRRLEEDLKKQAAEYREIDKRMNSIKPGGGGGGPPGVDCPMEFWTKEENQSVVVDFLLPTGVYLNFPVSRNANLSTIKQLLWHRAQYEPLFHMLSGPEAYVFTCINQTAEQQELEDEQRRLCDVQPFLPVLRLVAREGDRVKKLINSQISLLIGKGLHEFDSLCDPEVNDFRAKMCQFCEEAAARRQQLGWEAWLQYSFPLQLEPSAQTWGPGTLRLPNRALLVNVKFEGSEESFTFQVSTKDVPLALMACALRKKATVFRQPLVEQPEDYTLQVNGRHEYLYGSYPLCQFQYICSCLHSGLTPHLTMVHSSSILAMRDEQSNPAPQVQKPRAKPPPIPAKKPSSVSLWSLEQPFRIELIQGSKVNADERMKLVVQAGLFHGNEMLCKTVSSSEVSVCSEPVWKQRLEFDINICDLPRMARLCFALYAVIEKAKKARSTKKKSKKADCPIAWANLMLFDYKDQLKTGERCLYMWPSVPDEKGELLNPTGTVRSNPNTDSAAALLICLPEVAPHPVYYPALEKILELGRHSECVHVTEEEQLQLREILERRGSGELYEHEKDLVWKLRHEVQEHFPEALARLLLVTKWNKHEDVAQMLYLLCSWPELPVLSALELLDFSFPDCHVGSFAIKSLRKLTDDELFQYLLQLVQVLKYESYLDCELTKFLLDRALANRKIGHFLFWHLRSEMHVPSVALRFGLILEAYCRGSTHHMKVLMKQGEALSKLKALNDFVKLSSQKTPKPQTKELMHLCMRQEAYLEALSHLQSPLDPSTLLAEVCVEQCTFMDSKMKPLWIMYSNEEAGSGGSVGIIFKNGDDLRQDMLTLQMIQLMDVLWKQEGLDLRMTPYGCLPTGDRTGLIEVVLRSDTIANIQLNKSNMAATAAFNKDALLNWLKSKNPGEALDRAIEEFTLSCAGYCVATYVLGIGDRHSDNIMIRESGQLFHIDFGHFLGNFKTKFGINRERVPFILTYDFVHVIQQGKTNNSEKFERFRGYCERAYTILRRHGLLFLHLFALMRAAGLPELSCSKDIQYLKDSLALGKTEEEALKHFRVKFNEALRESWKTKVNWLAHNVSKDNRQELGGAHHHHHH

PI3Kbeta = biological target: T3, PI3Kbeta (Homo sapiens, UniProt P42338); experiment: PI3K KinaseGlo assay, PI3Kbeta; conditions: 1 μM ATP, 25 nM enzyme, 30 mins
T3 construct: p85α iSH2 domain (fusion partner); His tag (C); made in house; host or cells: baculovirus / Tn5 insect cells
T3 sequence (P42338 with tags, fused parts or gaps limits assumed): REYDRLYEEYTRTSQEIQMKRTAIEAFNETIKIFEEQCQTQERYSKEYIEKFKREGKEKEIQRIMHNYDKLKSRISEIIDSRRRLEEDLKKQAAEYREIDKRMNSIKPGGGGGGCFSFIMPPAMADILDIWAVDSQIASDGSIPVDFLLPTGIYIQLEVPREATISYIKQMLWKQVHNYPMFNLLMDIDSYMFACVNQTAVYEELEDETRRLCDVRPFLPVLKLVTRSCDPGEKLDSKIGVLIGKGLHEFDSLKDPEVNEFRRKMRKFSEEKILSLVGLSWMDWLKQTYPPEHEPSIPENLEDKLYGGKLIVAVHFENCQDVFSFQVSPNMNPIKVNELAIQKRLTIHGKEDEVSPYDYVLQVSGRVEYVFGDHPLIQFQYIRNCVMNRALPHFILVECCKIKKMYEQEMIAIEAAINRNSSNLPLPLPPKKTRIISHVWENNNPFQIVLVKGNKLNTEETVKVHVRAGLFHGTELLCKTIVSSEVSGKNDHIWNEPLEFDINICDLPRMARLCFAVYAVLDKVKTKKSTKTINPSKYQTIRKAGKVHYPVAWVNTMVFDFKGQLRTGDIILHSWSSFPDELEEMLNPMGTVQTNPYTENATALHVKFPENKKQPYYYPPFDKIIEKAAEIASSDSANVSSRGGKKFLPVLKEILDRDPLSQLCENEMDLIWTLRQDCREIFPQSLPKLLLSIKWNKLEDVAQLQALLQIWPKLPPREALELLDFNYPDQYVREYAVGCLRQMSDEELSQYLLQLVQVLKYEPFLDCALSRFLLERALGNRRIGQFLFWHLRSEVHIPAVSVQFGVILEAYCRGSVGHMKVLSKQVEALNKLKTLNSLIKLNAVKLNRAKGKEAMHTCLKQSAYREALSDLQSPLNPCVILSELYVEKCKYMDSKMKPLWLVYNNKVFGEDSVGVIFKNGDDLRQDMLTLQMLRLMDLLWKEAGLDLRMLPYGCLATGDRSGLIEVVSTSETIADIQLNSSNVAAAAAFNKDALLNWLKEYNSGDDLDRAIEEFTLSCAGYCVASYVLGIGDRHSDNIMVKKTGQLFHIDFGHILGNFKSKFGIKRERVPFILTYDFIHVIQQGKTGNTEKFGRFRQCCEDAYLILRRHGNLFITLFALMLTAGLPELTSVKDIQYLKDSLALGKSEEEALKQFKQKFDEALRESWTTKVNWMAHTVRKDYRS

PI3Kgamma = biological target: T4, PI3Kgamma (Homo sapiens, UniProt P48736, Q459R); experiment: PI3K KinaseGlo assay, PI3Kgamma; conditions: 1 μM ATP, 150 nM enzyme, 90 mins
T4 construct: Constructs lacking the N-terminal 144 aa; His6 (C); made in house; host or cells: Tn5 insect cells; construct from Roger Williams lab (MRC LMB)
T4 sequence (P48736 with tags, fused parts or gaps Q459R): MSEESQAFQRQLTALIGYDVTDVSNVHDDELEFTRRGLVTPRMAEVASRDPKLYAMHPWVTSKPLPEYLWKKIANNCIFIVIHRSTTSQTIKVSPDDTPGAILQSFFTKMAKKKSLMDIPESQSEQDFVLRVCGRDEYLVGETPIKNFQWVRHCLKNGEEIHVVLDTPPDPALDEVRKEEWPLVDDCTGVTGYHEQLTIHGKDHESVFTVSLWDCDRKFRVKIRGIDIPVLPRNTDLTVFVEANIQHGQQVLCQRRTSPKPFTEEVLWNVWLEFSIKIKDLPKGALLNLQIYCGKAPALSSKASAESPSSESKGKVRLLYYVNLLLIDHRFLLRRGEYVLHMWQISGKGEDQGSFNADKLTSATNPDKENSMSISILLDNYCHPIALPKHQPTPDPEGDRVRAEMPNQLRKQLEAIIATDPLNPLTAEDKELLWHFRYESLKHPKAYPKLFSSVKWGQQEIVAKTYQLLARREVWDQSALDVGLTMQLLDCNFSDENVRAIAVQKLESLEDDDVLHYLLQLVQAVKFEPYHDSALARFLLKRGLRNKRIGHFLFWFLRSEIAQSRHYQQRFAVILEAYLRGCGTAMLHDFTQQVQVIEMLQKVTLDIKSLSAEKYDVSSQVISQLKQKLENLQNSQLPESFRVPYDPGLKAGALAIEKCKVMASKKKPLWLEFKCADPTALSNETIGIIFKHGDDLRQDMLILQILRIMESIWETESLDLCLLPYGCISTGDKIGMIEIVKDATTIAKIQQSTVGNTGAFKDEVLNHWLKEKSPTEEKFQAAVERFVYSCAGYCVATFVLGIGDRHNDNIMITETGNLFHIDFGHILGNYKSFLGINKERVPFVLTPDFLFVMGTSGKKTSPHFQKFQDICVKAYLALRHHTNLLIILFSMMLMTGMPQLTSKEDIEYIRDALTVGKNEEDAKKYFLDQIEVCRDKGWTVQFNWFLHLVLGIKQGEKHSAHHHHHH
Description: PI3K KinaseGlo assay: […] of compound dilutions were dispensed onto black 384-well low volume Non Binding Styrene (NBS) plates (Costar Cat. No. NBS#3676). L-a-phosphatidylinositol (PI), provided as 10 mg/ml solution in methanol, was transferred into a glass tube and dried under nitrogen beam. It was then resuspended in 3% OctylGlucoside (OG) by vortexing and stored at 4° C. The KinaseGlo Luminescent Kinase Assay (Promega, Madison/WI, USA) is a homogeneous HTS method of measuring kinase activity by quantifying the amount of ATP remaining in solution following a kinase reaction.
5 μL of a mix of PI/OG with the PI3K subtype were added (Table 1). Kinase reactions were started by addition of 5 μl of ATP-mix containing in a final volume 10 μL 10 mM TRIS-HCl pH 7.5, 3 mM MgCl2, 50 mM NaCl, 0.05% CHAPS, 1 mM DTT and 1 μM ATP, and occurred at room temperature. Reactions were stopped with 10 μl of KinaseGlo and plates were read 10 mins later in a Synergy2 reader using an integration time of 0.1 seconds per well. […] The standard was used as a reference compound and included in all assay plates in the form of 16 dilution points in duplicate.
The PI3Kα, PI3Kβ and PI3Kδ constructs are fusion of p85α iSH2 domain and the respective p110 isoforms. The p85α fragment and p110 isoform genes were generated by PCR from first strand cDNA generated by RT-PCR from commercial RNA from placenta, testis and brain as described below. […]
The lysate was centrifuged at 45,000 g for 30 minutes, and the supernatant was loaded onto a pre-equilibrated IMAC column (3 mL resin/100 mL lysate). […] Pertinent fractions were analyzed by SDS-PAGE and pooled accordingly. […] Pertinent fractions were analyzed by SDS-PAGE and pooled accordingly. […]

T1 sequence (P42336 with tags, fused parts or gaps): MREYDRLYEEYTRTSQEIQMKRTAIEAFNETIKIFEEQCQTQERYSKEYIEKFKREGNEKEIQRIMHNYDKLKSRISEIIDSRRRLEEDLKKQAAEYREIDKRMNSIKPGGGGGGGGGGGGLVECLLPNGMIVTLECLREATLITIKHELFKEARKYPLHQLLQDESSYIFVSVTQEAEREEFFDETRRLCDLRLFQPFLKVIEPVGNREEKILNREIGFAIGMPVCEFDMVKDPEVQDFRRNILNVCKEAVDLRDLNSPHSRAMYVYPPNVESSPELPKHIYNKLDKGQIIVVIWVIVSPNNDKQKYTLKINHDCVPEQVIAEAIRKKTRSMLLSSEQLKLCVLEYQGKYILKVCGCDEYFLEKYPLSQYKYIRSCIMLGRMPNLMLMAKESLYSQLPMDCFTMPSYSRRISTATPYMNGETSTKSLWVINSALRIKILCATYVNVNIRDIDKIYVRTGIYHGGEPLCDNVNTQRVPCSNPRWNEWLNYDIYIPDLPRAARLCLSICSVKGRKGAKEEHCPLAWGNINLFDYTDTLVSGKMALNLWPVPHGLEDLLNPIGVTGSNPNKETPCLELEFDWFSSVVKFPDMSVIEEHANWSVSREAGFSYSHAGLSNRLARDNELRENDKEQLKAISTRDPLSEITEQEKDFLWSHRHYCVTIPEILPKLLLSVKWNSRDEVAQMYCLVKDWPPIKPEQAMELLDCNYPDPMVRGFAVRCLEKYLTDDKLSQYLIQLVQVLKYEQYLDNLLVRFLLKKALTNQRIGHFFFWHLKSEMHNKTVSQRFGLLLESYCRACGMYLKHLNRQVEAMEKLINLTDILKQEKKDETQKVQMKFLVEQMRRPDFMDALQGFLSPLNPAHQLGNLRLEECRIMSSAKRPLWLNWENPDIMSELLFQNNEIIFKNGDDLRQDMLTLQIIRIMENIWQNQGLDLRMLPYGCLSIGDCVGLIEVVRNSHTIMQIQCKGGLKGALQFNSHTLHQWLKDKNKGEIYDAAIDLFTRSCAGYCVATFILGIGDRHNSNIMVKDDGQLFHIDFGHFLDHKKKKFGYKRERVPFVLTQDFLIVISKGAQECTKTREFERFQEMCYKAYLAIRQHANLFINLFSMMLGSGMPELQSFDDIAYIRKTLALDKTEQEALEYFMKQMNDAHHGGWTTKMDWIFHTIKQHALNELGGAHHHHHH

Row | IC50 (PI3Kalpha) [nM] | IC50 (PI3Kdelta) [nM] | IC50 (PI3Kbeta) [µM] | IC50 (PI3Kgamma) [nM] | Compound
1 | 78 | 1260 | 0.885 | 928 | Cc1nc(NC(=O)N2CCC[C@@]2(C)C(N)=O)sc1-c1csc(CC2CC2)n1 [Example 49, (S)-2-Methyl-pyrrolidine-1,2-dicarboxylic acid 2-amide 1-[(2-cyclopropylmethyl-4′-methyl-[4,5]bithiazolyl-2′-yl)-amide]]
2 | 54 | 622 | 6.86 | 2510 | Cc1nc(NC(=O)N2CCC2C(N)=O)sc1-c1csc(C(C)(C)C)n1 (stereo not drawn) [Example 13, Azetidine-1,2-dicarboxylic acid 2-amide 1-[(2-tert-butyl-4′-methyl-[4,5]bithiazolyl-2′-yl)-amide]]

Row | Compound | IC50 (PI3Kalpha) [nM] | IC50 (PI3Kdelta) [nM] | IC50 (PI3Kbeta) [µM] | IC50 (PI3Kgamma) [nM]
3 | Cc1nc(NC(=O)N2CCC[C@H]2C(N)=O)sc1-c1csc(N2CC3CCC(CC3)C2)n1 [Example 23, (S)-Pyrrolidine-1,2-dicarboxylic acid 2-amide 1-{[2-(3-aza-bicyclo[3.2.2]non-3-yl)-4′-methyl-[4,5]bithiazolyl-2′-yl]-amide}] | 331 | 2370 | 8.47 | 1640

Source: patent publication US20100298286A1, “Organic Compounds” (NOVARTIS AG, priority 2007, published 2010)
